How the values were obtained:
IRAK1 = molecular target: T1, IRAK1 (Homo sapiens, UniProt P51617); assay: IRAK1 enzymatic assay (ADP-Glo luminescence); assay type: biochemical; settings: purified human recombinant His-TEV-IRAK1 (194-712)
T1 construct: His-TEV-IRAK1 (194-712); His (N); TEV cleavage site (N)
Summary of the method: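 Luminescent ADP-Glo read-out of ATP turnover by purified His-TEV-IRAK1 (194-712) at 0.3 μg/ml after a 2-hour RT reaction. Compounds, serially diluted from 10 μM to 0.5 nM, were preincubated with enzyme 15 minutes in Hepes pH 7.0 buffer with MgCl2, DTT, EGTA and Triton X-100.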

IRAK4 = molecular target: T2, IRAK4 (Homo sapiens, UniProt Q9NWZ3); assay: IRAK4 enzymatic assay (ADP-Glo luminescence); assay type: biochemical; settings: purified human recombinant His-TEV-IRAK4 (1-460), ATP 2 μM
T2 construct: His-TEV-IRAK4 (1-460); His (N); TEV cleavage site (N)
T2 sequence (Q9NWZ3 1-460): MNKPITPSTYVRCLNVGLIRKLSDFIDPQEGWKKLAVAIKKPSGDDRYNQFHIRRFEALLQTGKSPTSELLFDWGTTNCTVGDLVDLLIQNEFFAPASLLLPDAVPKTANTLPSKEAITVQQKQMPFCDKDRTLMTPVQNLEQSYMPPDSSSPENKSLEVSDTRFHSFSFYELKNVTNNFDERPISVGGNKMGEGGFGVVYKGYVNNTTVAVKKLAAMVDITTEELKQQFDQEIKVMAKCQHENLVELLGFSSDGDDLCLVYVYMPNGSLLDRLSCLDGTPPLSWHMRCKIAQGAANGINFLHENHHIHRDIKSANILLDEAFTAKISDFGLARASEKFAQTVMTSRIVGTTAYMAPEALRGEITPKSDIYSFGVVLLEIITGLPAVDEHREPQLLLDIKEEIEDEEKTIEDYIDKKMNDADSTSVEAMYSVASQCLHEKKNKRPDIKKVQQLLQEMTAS
Summary of the method: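 ADP-Glo luminescence read-out after a 2 h RT kinase reaction with 2 μM ATP and 300 nM biotinylated STK1 peptide. Enzyme (His-TEV-IRAK4 1-460, 0.3 μg/ml) first incubated 15 min with serially diluted compounds (10 μM–0.5 nM) in 50 mM Hepes pH 7.0, 10 mM MgCl2, 5 mM MnCl2.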

T1 sequence (P51617 194-712): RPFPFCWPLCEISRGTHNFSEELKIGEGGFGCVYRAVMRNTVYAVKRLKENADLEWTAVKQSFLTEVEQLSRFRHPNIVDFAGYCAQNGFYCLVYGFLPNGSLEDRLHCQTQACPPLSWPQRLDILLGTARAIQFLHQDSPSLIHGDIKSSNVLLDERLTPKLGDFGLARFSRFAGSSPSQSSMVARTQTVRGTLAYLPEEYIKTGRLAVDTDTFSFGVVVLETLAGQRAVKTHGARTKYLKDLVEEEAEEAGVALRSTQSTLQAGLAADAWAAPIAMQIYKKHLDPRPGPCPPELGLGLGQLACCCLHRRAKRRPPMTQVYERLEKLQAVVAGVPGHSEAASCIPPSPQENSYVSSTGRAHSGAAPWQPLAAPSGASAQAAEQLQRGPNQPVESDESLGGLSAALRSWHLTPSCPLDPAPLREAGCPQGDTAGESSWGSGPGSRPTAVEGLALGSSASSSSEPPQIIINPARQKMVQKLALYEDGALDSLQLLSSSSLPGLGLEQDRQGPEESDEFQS

| IC50 (IRAK1) [nM] | IC50 (IRAK4) [nM] | SMILES |
| --- | --- | --- |
| 100 to 1000 | ≤ 100 | O=C(/N=c1\[nH]c2cc(N3CCOCC3=O)ccc2n1[C@H]1CC[C@H](O)CC1)c1cccc(C(F)(F)F)c1 [Compound 32, trans-(E)-N-(1-(4-hydroxycyclohexyl)-5-(3-oxomorpholino)-1H-benzo[d]imidazol-2(3H)-ylidene)-3-(trifluoromethyl)benzamide] |
| 100 to 1000 | ≤ 100 | CS(=O)(=O)c1cccc(C(=O)/N=c2\[nH]c3cc(N4CCOCC4=O)ccc3n2CCCO)c1 [Compound 82, (E)-N-(1-(3-hydroxypropyl)-5-(3-oxomorpholino)-1H-benzo[d]imidazol-2(3H)-ylidene)-3-(methylsulfonyl)benzamide] |
| 100 to 1000 | ≤ 100 | O=C(/N=c1\[nH]c2cc(N3CCOCC3=O)ccc2n1CC1(CO)CC1)c1cccc(OC(F)F)c1 [Compound 66, (E)-3-(difluoromethoxy)-N-(1-((1-(hydroxymethyl)cyclopropyl)methyl)-5-(3-oxomorpholino)-1H-benzo[d]imidazol-2(3H)-ylidene)benzamide] |
| 100 to 1000 | ≤ 100 | O=C(/N=c1\[nH]c2cc(N3CCN(C4CC4)CCC3=O)ccc2n1CCCO)c1cccc(C(F)(F)F)c1 [Example 191, (E)-N-(5-(4-cyclopropyl-7-oxo-1,4-diazepan-1-yl)-1-(3-hydroxypropyl)-1H-benzo[d]imidazol-2(3H)-ylidene)-3-(trifluoromethyl)benzamide] |
| > 1000 | > 1000 | O=C(/C=C1\Nc2cc(N3CCOCC3=O)ccc2N1CCCO)c1ccc2ccccc2n1 [Compound 149, (E)-4-(1-(3-hydroxypropyl)-2-(2-oxo-2-(quinolin-2-yl)ethylidene)-2,3-dihydro-1H-benzo[d]imidazol-5-yl)morpholin-3-one] |
| 100 to 1000 | ≤ 100 | CS(=O)(=O)c1cccc(C(=O)/N=c2\[nH]c3cc(N4CCOCC4=O)ccc3n2CCCCO)c1 [Compound 19, (E)-N-(1-(4-hydroxybutyl)-5-(3-oxomorpholino)-1H-benzo[d]imidazol-2(3H)-ylidene)-3-(methylsulfonyl)benzamide] |
| 100 to 1000 | ≤ 100 | Cc1cc2c(cc1N1CCOCC1=O)[nH]/c(=N\C(=O)c1cccc(C(F)(F)F)c1)n2CCCO [Compound 70, (E)-N-(1-(3-hydroxypropyl)-6-methyl-5-(3-oxomorpholino)-1H-benzo[d]imidazol-2(3H)-ylidene)-3-(trifluoromethyl)benzamide] |
| 100 to 1000 | ≤ 100 | O=C(/N=c1\[nH]c2cc(N3CCCNC3=O)ccc2n1CCCO)c1cccc(C(F)F)c1 [Compound 46, (E)-3-(difluoromethyl)-N-(1-(3-hydroxypropyl)-5-(2-oxotetrahydropyrimidin-1(2H)-yl)-1H-benzo[d]imidazol-2(3H)-ylidene)benzamide] |
| 100 to 1000 | ≤ 100 | O=C(/N=c1\[nH]c2cc(N3CCOCC3=O)ccc2n1C1CCCC(CO)C1)c1cccc(C(F)(F)F)c1 (stereo not drawn) [Compound 120, (E)-N-(1-(3-(hydroxymethyl)cyclohexyl)-5-(3-oxomorpholino)-1H-benzo[d]imidazol-2(3H)-ylidene)-3-(trifluoromethyl)benzamide] |
| 100 to 1000 | ≤ 100 | O=C(/N=c1\[nH]c2cc(N3CCOCC3=O)ccc2n1CCCO)c1cccc(Br)c1 [Compound 37, (E)-3-bromo-N-(1-(3-hydroxypropyl)-5-(3-oxomorpholino)-1H-benzo[d]imidazol-2(3H)-ylidene)benzamide] |
| 100 to 1000 | ≤ 100 | O=C(/N=c1\[nH]c2cc(N3CCOC3=O)ccc2n1CCCO)c1cccc(C(F)(F)F)c1 [Compound 8, (E)-N-(1-(3-hydroxypropyl)-5-(2-oxooxazolidin-3-yl)-1H-benzo[d]imidazol-2(3H)-ylidene)-3-(trifluoromethyl)benzamide] |
| ≤ 100 | ≤ 100 | O=C(/N=c1\[nH]c2cc(N3CCOCC3=O)ccc2n1[C@H]1CC[C@@H](CO)CC1)c1cccc(C(F)(F)F)c1 [Compound 122, cis-(E)-N-(1-(4-(hydroxymethyl)cyclohexyl)-5-(3-oxomorpholino)-1H-benzo[d]imidazol-2(3H)-ylidene)-3-(trifluoromethyl)benzamide] |
| ≤ 100 | ≤ 100 | Cn1ccc(-c2cccc(C(=O)/N=c3\[nH]c4cc(N5CCOCC5=O)ccc4n3CCCO)c2)cc1=O [Compound 153, (E)-N-(1-(3-hydroxypropyl)-5-(3-oxomorpholino)-1H-benzo[d]imidazol-2(3H)-ylidene)-3-(1-methyl-2-oxo-1,2-dihydropyridin-4-yl)benzamide] |
| 100 to 1000 | ≤ 100 | O=C(/N=c1\[nH]c2cc(N3CCCOC3=O)ccc2n1CC1(F)COC1)c1cccc(C(F)F)c1 [Example 227, (E)-3-(difluoromethyl)-N-(1-((3-fluorooxetan-3-yl)methyl)-5-(2-oxo-1,3-oxazinan-3-yl)-1H-benzo[d]imidazol-2(3H)-ylidene)benzamide] |
| ≤ 100 | ≤ 100 | O=C(/N=c1\[nH]c2cc(N3CCN(C4CC4)CC3=O)ccc2n1CCCO)c1cccc(C(F)(F)F)c1 [Compound 183, (E)-N-(5-(4-cyclopropyl-2-oxopiperazin-1-yl)-1-(3-hydroxypropyl)-1H-benzo[d]imidazol-2(3H)-ylidene)-3-(trifluoromethyl)benzamide] |
| 100 to 1000 | ≤ 100 | O=C(/N=c1\[nH]c2cc(N3CCOCC3=O)ccc2n1CCCO)c1cccc(OC(F)(F)F)c1 [Compound 7, (E)-N-(1-(3-hydroxypropyl)-5-(3-oxomorpholino)-1H-benzo[d]imidazol-2(3H)-ylidene)-3-(trifluoromethoxy)benzamide] |
| ≤ 100 | ≤ 100 | COc1cc2c(cc1N1CCOCC1=O)[nH]/c(=N\C(=O)c1cccc(C#N)c1)n2CCCO [Compound 74, (E)-3-cyano-N-(1-(3-hydroxypropyl)-6-methoxy-5-(3-oxomorpholino)-1H-benzo[d]imidazol-2(3H)-ylidene)benzamide] |
| 100 to 1000 | 100 to 1000 | O=C(/N=c1\[nH]c2cc(N3CCOCC3=O)ccc2n1[C@H]1CCCC[C@H]1CO)c1cccc(C(F)F)c1 (racemic) [Compound 117, rac-(E)-3-(difluoromethyl)-N-(1-((1S,2R)-2-(hydroxymethyl)cyclohexyl)-5-(3-oxomorpholino)-1H-benzo[d]imidazol-2(3H)-ylidene)benzamide] |
| ≤ 100 | ≤ 100 | Cn1ncn(-c2ccc3c(c2)[nH]/c(=N\C(=O)c2cccc(C(F)(F)F)c2)n3CCCO)c1=O [Compound 189, (E)-N-(1-(3-hydroxypropyl)-5-(1-methyl-5-oxo-4,5-dihydro-1H-1,2,4-triazol-4(5H)-yl)-1H-benzo[d]imidazol-2(3H)-ylidene)-3-(trifluoromethyl)benzamide] |
| ≤ 100 | ≤ 100 | CNS(=O)(=O)c1cccc(C(=O)/N=c2\[nH]c3cc(N4CCOCC4=O)ccc3n2CCCO)c1 [Compound 97, (E)-N-(1-(3-hydroxypropyl)-5-(3-oxomorpholino)-1H-benzo[d]imidazol-2(3H)-ylidene)-3-(N-methylsulfamoyl)benzamide] |
| ≤ 100 | ≤ 100 | [2H]C([2H])([2H])Oc1cc2c(cc1N1CCCOC1=O)[nH]/c(=N\C(=O)c1cccc(C(F)(F)F)c1)n2CCCO [Example 204, (E)-N-(1-(3-hydroxypropyl)-6-(trideuteromethoxy)-5-(2-oxo-1,3-oxazinan-3-yl)-1H-benzo[d]imidazol-2(3H)-ylidene)-3-(trifluoromethyl)benzamide] |

Source: US10059701B2 (Merck Patent GmbH, priority 2015, dated 2018)
